The subject of data set [1] is HL-60 cells. Put plainly: Mechanical fragility test (Burrell wrist action shaker, glass beads), HL-60 cells. The format is cell-based. As to conditions: for protection from mechanical induced cytolysis: 30 min shaking, 50% power, HGP 1-10 mM, HepGP 0.1-10 mM, MGP 10-30 mM, OGP 0.3-3 mM. Here is the method:
10 ml borosilicate glass beads in a 125 ml conical flask. 10 ml cell suspension in the presence and absence (control) of various glucopyranosides (HGP, HepGP, MGP, and OGP) in a cell culture medium containing 10% DPBS solution. Shaking was conducted over a period of 30 minutes. Each data point represents ±SD, where n=5.
Mechanical Fragility Test: the effect of glucopyranosides on the mechanical fragility of the cells was determined by inducing mechanical shear stress to a cell suspension. This involved placing 10 mL of HL-60 cells in suspension in 125 ml sized screw capped conical flasks containing 10 mL of borosilicate solid-glass beads (Sigma-Aldrich, mean particle diameter of 3 mm), similar to the methods described elsewhere (Carstensen, E. L. et al. 1993; Miller, M. W. et al. 2003). The samples were then shaken in a Burrell wrist action shaker (model number 75, Burrell Scientific, Pittsburgh, Pa.) at 50% power for a duration of 30 minutes. Using this method, up to eight sample solutions could be run at one time. […] In samples containing glucopyranosides, the surfactant was dissolved in 1 ml of DPBS and added to 9 ml of the cell suspension.

Data set [2] concerns HL-60 cells. Kind of data set: Exposure of HL-60 cells to glucopyranosides alone (no ultrasound). As to conditions: 15 minute exposure at highest concentrations used.
Protocol: (§1) Cell experiments were completed within 5 to 10 minutes of adding the glucopyranosides to the cell suspensions, and each data point represents an average ±SEM, where n=5 to 8. […] For this reason, we only studied the effects of MGP, HGP, HepGP and OGP on the ultrasound induced cytolysis of HL-60 cells.
The subject of data set [3] is HL-60 cells. Kind of data set: Ultrasound-induced cytolysis of HL-60 cells, Coulter counter analysis. The format is cell-based. As to conditions: for effect on ultrasound induced cytolysis (% cytolysis) / concentration giving complete (approximately 100%) protection from ultrasound induced cytolysis: 1.057 MHz (1 MHz), 10 W; for effect on ultrasound induced cytolysis (% cytolysis) / concentration giving complete (approximately 100%) protection from ultrasound induced cytolysis / effect on ultrasound induced cytolysis: 5 s; for concentration giving complete (approximately 100%) protection from ultrasound induced cytolysis: air exposed; for change of protection from cytolysis as frequency is decreased: frequency decreased from 1 MHz to 42 kHz; for cells protected from immediate cytolysis: 7 mM HGP. Here is the method:
Cells: HL-60 myeloid leukemia cells (American Type Culture Collection) were grown in a suspension of RPMI 1640 medium (GIBCO, Gaithersburg, Md.) containing 10% calf serum. The population of HL-60 cells doubled every 23±1 hr (hour ±SEM) when incubated at 37° C. in a CO2 (5%) containing atmosphere. Cells were harvested, re-suspended in fresh RPMI medium and kept at 25° C. until the start of the experiment (typically less than 1 hr). […] The fraction of intact cells before and after ultrasound was determined using a Coulter multisizer (model IIe) connected to a sampling stand (model IIa). The number of intact cells was determined by counting the total number of particles under the bell shaped curve (e.g., FIG. 1a) before and following sonolysis. The cytolysis percentage was determined by subtracting the number of intact cells following sonolysis from the number of intact cells before sonolysis. This value was divided by the number of intact cells before sonolysis and multiplied by 100 to obtain the cytolysis percentage value.
The temperature of the coupling water was 25° C.
We have confirmed the validity of this technique for studying the effects of sonolysis in our ultrasound system by the trypan blue exclusion assay. The mean size of HL-60 cells was determined from the Coulter counter results prior to sonolysis and was approximately 650 μm3 (FIG. 1a) which equates to a mean cell diameter of […].
42 kHz sonolysis was conducted in a similar way but using a Branson ultrasound bath (model number 1510). […] At 42 kHz, a transducer was used to decrease the power of the bath to 50% of its original value. The temperature of the coupling water at all frequencies was 25° C.
The percentage of cytolysis of HL-60 cells was determined by measurement of the cell size distribution using a Coulter multisizer. This method correlates well with percentage cytolysis measured using the Trypan blue exclusion assay immediately following sonolysis and is explained in detail elsewhere (Miyoshi, N. et al. 2003). […] This immediate ultrasound induced cytolysis (i.e., % cytolysis) is represented in FIGS. 2, 10-12 at a concentration of zero.
42 kHz sonolysis was conducted in a similar way but using a Branson ultrasound bath (model number […]). […] At 42 kHz, a transducer was used to decrease the power of the bath to 50% of its original value. The temperature of the coupling water at all frequencies was 25° C.
The percentage of cytolysis of HL-60 cells was determined by measurement of the cell size distribution using a Coulter multisizer. This method correlates well with percentage cytolysis measured using the Trypan blue exclusion assay immediately following sonolysis and is explained in detail elsewhere (Miyoshi, N. et al. 2003). […] This immediate ultrasound induced cytolysis (i.e., % cytolysis) is represented at a concentration of zero.

In data set [4] the test system is HL-525 cells. Put plainly: Sonolysis of HL-525 cells, % cytolysis. The format is cell-based. As to conditions: 1 MHz (1057 kHz), 10 W, 5 sec. Here is the method: Conditions: 42 kHz, 50% power, 5 sec, 20° C., % cytolysis ±SD (n=6).
Conditions: 354 kHz, 15 W, 5 sec, 20° C., % cytolysis ±SD (n=6).
Conditions: 614 kHz, 20 W, 5 sec, 20° C., % cytolysis ±SD (n=6).
Conditions: 1057 kHz, 10 W, 5 sec, 20° C., % cytolysis ±SD (n=6).

The subject of data set [5] is HL-60 cells.
Protocol: as §1
Data set [6] relates to HL-60 cells. Put plainly: Reproduction assay of HL-60 cells following sonolysis. The format is cell-based. As to conditions: for reproductive viability (reproduction fraction) over 24 hours after sonolysis: 5 seconds, 10 W, varying concentrations; for reproduction ratio one or two days post treatment: 7 mM HGP. Here is the method:
Cells were allowed to reproduce for 24 hours. Reproduction fraction ±SD (where n=6 to 8) is calculated by dividing the number of cells counted following 24 hours of reproduction by the number of cells counted at the start of incubation.
Control data points were run in triplicate with a standard deviation of less than 10%. Sonolysis points represent an average of six separate cell suspensions, with a standard deviation of less than 10%.
The reproduction ratio is the number of cells present one or two days post treatment divided by the number of cells present on the treatment day.
Reproduction Assay: for FIG. 5, a reproduction assay was conducted over a period of 10 days to determine the long term viability of cells following ultrasound treatment in the presence of either HGP or OGP at concentrations where 100% protection from cytolysis occurred. The long term viability of treated cell suspensions was compared to the long term viability of untreated control cell suspensions held under exactly the same conditions (FIG. 5). Immediately following sonolysis, a 100 μl aliquot of the 1 ml treated (or control) samples was used for Coulter counter analysis in order to confirm that 100% of the cells had survived the ultrasound treatment. Viability of the cells was determined by using a very small volume (approx. 20 μl) of suspension for trypan blue staining. The remaining ≈0.9 ml cell suspensions were diluted to 3 ml with fresh medium, centrifuged, washed with fresh medium, and finally re-suspended in fresh medium (2 ml). 100 μl of this new 2 ml of cells suspended in fresh medium was then used to determine the cell concentration. This cell concentration is defined as ‘the cell concentration at Day 0 after ultrasound treatment’ (Ci). Cell suspensions were then kept at 37° C. in a 5% CO2 incubator for a total of 10 days.
Over the 10 day period, cells had to be spun down occasionally and re-suspended in fresh medium to replenish the nutrients necessary for a healthy cell population. 100 μl aliquots of the original cell suspension were used to measure the cell concentration both before (Cfinal) and following (Cinitial) re-suspension in fresh medium. This procedure, although necessary, results in a slight underestimation in the expected number of cells on any given day, when compared to the original cell concentration, Ci. To account for this small, but significant underestimation, we calculated the actual number of cells that would have been observed had we not been periodically extracting small aliquots for the detection of cell numbers by the Coulter counter. This was done by calculating a ‘reproduction ratio’, determined by dividing Cfinal by Cinitial that was measured one or two days earlier and comparing this ratio to (Ci), to give a ‘real cell population’. It should be noted that this calculation is done simply as a matter of convenience and that the reproduction ability of the treated samples was compared to control samples that were treated in the same way over the day period, as shown in FIG. 5. Verification of this method is given by the fact that the cells of the control samples double approximately every day (FIG. 5), as expected for HL-60 cells under the conditions of incubation in the current study.

We go through 8 compounds from patent US20080269163A1, “Methods and Compositions for Protecting Cells from Ultrasound-Mediated Cytolysis” (priority 2004, published 2008).

Entries after “also recorded” stand apart in the source; their conditions may differ.

Take `CO[C@@H]1O[C@H](CO)[C@@H](O)[C@H](O)[C@H]1O` [MGP, Methyl-β-D-Glucopyranoside, reference compound]: in data set [1], the “protection from mechanical induced cytolysis” value is recorded as “none of the glucopyranosides tested”. Moreover, in data set [2], the “effect on reproduction rate of the cells over 120 hours” value (from here on “effect … over 120 hours”) is listed as “no detrimental effect”. The “effect on ultrasound induced cytolysis (% cytolysis)” value (“effect … (% cytolysis)” below) in data set [3] (HL-60 cells) is reported as “no effect”. Besides, the “effect on ultrasound induced cytolysis at any ultrasound frequency” value in data set [3] (HL-60 cells, 42 kHz to 1 MHz, MGP 10 to 30 mM) is reported as “effectively has no effect”. Also, in data set [4], the “protective effect for HL-525 cells compared to HL-60 cells” value is “different protection effects”.

Turning to `CCCCCCCNC(=O)OC[C@H]1O[C@H](OC)[C@H](O)[C@@H](O)[C@@H]1O` [ANAMEG-7, methyl-6-O—(N-heptylcarbamoyl)-α-D-glucopyranoside], the “concentration giving complete (approximately 100%) protection from ultrasound induced cytolysis” value in data set [3] (HL-60 cells) is 3 mM.

For `CCCCCCCCCCO[C@@H]1O[C@H](CO)[C@@H](O)[C@H](O)[C@H]1O` [DGP, decyl-β-D-Glucopyranoside], the “lysis of cells on exposure (Coulter counter, trypan blue)” value in data set [5] is on record as “immediate lysis of a large population of cells”.

As to `CCCCCCCO[C@@H]1O[C@H](CO)[C@@H](O)[C@H](O)[C@H]1O` [HepGP, heptyl-β-D-Glucopyranoside], in data set [1], the “protection from mechanical induced cytolysis” value is “none of the glucopyranosides tested”. In addition, the “effect on cell membrane stability to mechanical shear stress” value in data set [1] (relatively high concentrations) is recorded as “significant destabilization of the cell membrane to mechanical shear stress”. The “reproductive viability (reproduction fraction) over 24 hours after sonolysis” value in data set [6] is recorded as “continue to reproduce at the same rate as untreated control samples”. The “effect … over 120 hours” value in data set [2] is recorded as “no detrimental effect”. For the same compound, in data set [3] (HL-60 cells), the “effect … (% cytolysis)” value is recorded as “fully protects”, the “concentration giving complete (approximately 100%) protection from ultrasound induced cytolysis” value was found to be 3 mM and the “change of protection from cytolysis as frequency is decreased” value was “less effective”. Further, the “effect on ultrasound induced cytolysis” value in data set [3] (HL-60 cells, 42 kHz, 50% power) was “very small sonosensitization”. Besides, the “effect on ultrasound induced cytolysis” value in data set [3] (HL-60 cells, 614 kHz, 20 W) is “fully protects”.

In the case of `CCCCCCO[C@@H]1O[C@H](CO)[C@@H](O[C@H]2O[C@H](CO)[C@@H](O)[C@H](O)[C@H]2O)[C@H](O)[C@H]1O` [HMP, Hexyl-β-D maltopyranoside], in data set [3] (HL-60 cells), the “concentration giving complete (approximately 100%) protection from ultrasound induced cytolysis” value is listed as 1 mM.

For the compound `OC[C@H]1O[C@@H](OCCCC2CCCCC2)[C@H](O)[C@@H](O)[C@@H]1O` [Cyglu-3, 3-cyclohexyl-1-propyl-β-D-glucoside], in data set [3] (HL-60 cells), the “concentration giving complete (approximately 100%) protection from ultrasound induced cytolysis” value amounted to 5 mM.

On to `CCCCCCCCO[C@H]1O[C@H](CO)[C@@H](O)[C@H](O)[C@H]1O` [alphaOGP, n-octyl-α-D-glucopyranoside], for which, in data set [3] (HL-60 cells), the “effect … (% cytolysis)” value is “very slight protective effect”.

Turning to `CCCCCCO[C@@H]1O[C@H](CO)[C@@H](O)[C@H](O)[C@H]1O` [HGP, hexyl-β-D-Glucopyranoside], in data set [1], the “protection from mechanical induced cytolysis” value is listed as “none of the glucopyranosides tested”. Moreover, the “reproduction ratio one or two days post treatment” value in data set [6] (354 kHz) and in data set [6] (614 kHz) was “continue to reproduce at the same rate” in each case. Besides, the “reproduction of treated cells over 10 days” value in data set [6] (HGP 5 mM, 1.057 MHz, 15 seconds, 40 W and 60 W) is reported as “continue to reproduce at a rate comparable to that of untreated control cells”. In addition, the “reproductive viability (reproduction fraction) over 24 hours after sonolysis” value in data set [6] is “continue to reproduce at the same rate as untreated control samples”. In data set [2], the “effect … over 120 hours” value is given as “no detrimental effect”. Also, the “cells protected from immediate cytolysis” value in data set [3] (354 kHz) and in data set [3] (614 kHz) was 100% in each case. Moreover, the ultrasound induced cytolysis entry in data set [3] (HGP 5 mM, 1.057 MHz, 15 seconds, 30 W) is on record as “eliminated”. Besides, in data set [3] (HGP 5 mM, 1.057 MHz, extreme conditions with almost 100% cytolysis without HGP), the “protection from sonolysis under a range of ultrasound intensities and exposure times” value is reported as “could protect cells from cytolysis even during extreme conditions of sonolysis”. Moreover, the “effect … (% cytolysis)” value in data set [3] (HL-60 cells) was “fully protects”. Further, the “effect on ultrasound induced cytolysis” value in data set [3] (HL-60 cells, 42 kHz, 50% power) is recorded as “very small sonosensitization; also recorded: not at 42 kHz”; in data set [3] (HL-60 cells, 354 kHz, 15 W) it was “fully protects”; in data set [3] (HL-60 cells, 614 kHz, 20 W), “fully protects”. Also, the “change of protection from cytolysis as frequency is decreased” value in data set [3] (HL-60 cells) was “less effective”.
